Reference: patent publication US5157019A, “Serine protease inhibitors” (Monsanto Company, priority 1991, dated 1992)
Ends that are not written are not given here.

Test system: complement activation
Assay: Reverse passive arthus reaction (RPAR), histopathology of injection sites
Format: in vivo, guinea pigs
Parameters: key: 0 indicating no acute inflamation; 1 indication minimal acute inflammation; 2 indicating mild acute inflammation; 3 indicating moderate acute inflammation
Settings: guinea pig, intradermal injection of peptide without antibody
Description: These exemplary peptide inhibitors (peptides 13, 7 and 27) were assayed for in vivo activity in inhibiting complement activation using the reverse passive arthus reaction (RPAR). RPAR is a model of complement-mediated damage due to activation via interaction with antigen/antibody complexes. Female guinea pigs (400 gm) were pretreated intracardially with bovine serum albumin and Evans blue dye. Ninety minutes later they received bilateral intradermal injections of peptide inhibitor or control material in the thoracolumbar region. Injection sites were excised postmortem and fixed in 10% buffered formalin for pathological evaluation. The peptides were administered to obtain an initial level of […] in the circulatory system.
The histopathological results are outlined below. The degree of inflammation was scored as follows: 0 indicating no acute inflamation; 1 indication minimal acute inflammation; 2 indicating mild acute inflammation; and 3 indicating moderate acute inflammation.

Degree of inflammation, mean score, protease inhibitor only: 1
Sequence: AGRSLNPNRVTFKANRPFLVFIREVPLNTIIFLGRVANP [Peptide 27]
